What was measured:
catalase = experiment: Catalase assay (H2O2 breakdown by leaf protein extract); type: biochemical, Arabidopsis thaliana; conditions: extracts of control plants germinated on 1 mM HU
Experimental: Plants were germinated on either control medium, medium with 1 mM HU or 6 μM 3-AT. Leaf tissue of 10 plants was ground in 200 μL extraction buffer (60 mM Tris (pH 6.9), 1 mM phenylmethylsulfonylfluoride, 10 mM DTT) on ice. The homogenate was centrifuged at 13,000 g for 15 minutes at 4° C. A total of 45 μg protein extract was mixed with potassium phosphate buffer (50 mM, pH 7.0) (Vandenabeele et al., 2004). After addition of 11.4 μL H2O2 (7.5%), the absorbance of the sample at 240 nm after 0 and 60 seconds was measured to determine catalase activity by H2O2 breakdown (Beers and Sizer, 1952; Vandenabeele et al., 2004).

SIM/SMR promoters = experiment: SIM/SMR promoter:GUS transcriptional reporter lines; type: in vivo, Arabidopsis thaliana
Excerpt: SIM/SMR promoter sequences were amplified from genomic DNA by PCR using the primers described in Table 5. The product fragments were created with the Pfu DNA Polymerase Kit (Promega, Catalog #M7745), and were cloned into a pDONR P4-Plr entry vector by BP recombination cloning and subsequently transferred into the pMK7S*NFml4GW,0 destination vector by LR cloning, resulting in a transcriptional fusion between the promoter of the SMR genes and the nlsGFP-GUS fusion gene (Karimi et al., 2007). For the overexpression constructs, the SMR coding regions were amplified using primers described in Table 5, and cloned into the pDONR221 vector by BP recombination cloning and subsequently transferred into the pK2GW7 destination vector (Kamimi et al., 2002) by LR cloning. All constructs were transferred into the Agrobacterium tumefaciens C58C1RifR strain harboring the pMP90 plasmid. The obtained Agrobacterium strains were used to generate stably transformed Arabidopsis lines with the floral dip transformation method (Clough and Bent, 1998). Transgenic plants were obtained on kanamycin-containing medium and later transferred to soil for optimal seed production.
Complete seedlings or tissue cuttings were stained in multiwell plates (Falcon 3043; Becton Dickinson). GUS assays were performed as described by Beeckman and Engler (1994). Samples mounted in lactic acid were observed and photographed with a stereomicroscope (Olympus BX51 microscope) or with a differential interference contrast (DIC) microscope (Leica).
To confirm involvement of SIM/SMR genes in the genotoxic stress response, transcriptional reporter lines containing the putative upstream promoter sequences were constructed for all. After selection of representative reporter lines, one-week-old seedlings were transferred to control medium, or medium supplemented with HU (resulting into stalled replication forks) or bleomycin (causing DSBs).

SMILES: NC(=O)NO [HU, hydroxyurea]
- H2O2 decomposition rate of plant extracts (catalase): reduced H2O2 decomposition rate
- transcriptional induction of SMR4, SMR5 and SMR7 reporters in the root meristem (SIM/SMR promoters; one-week-old seedlings, 1 mM HU, GUS assay 24 hours after transfer): strong transcriptional induction
- induction of SMR5 and SMR7 GUS reporters in the proliferating leaf (SIM/SMR promoters; treated for 24 hours): induced

— patent publication US20160272992A1, “PROTECTION OF PLANTS AGAINST OXIDATIVE STRESS” (priority 2013, published 2016)
